In PMC6270778, “Novel Cinnamic Acid Derivatives as Antioxidant and Anticancer Agents: Design, Synthesis and Modeling Studies” (Molecules, 2014):
Values joined by “and” are separate entries in the source; they are usually repeats but may differ in a detail not shown here. Equal values may be shown once.

Legend:
soybean lipoxygenase = molecular target: T1, soybean lipoxygenase (Glycine max, UniProt P08170); assay: Soybean lipoxygenase inhibition study in vitro (UV-based enzyme assay); assay type: biochemical; conditions: for inhibition at 10 µM: 0.01 mM, read-out: LOX inhibition % (±SD); for IC50: sodium linoleate 0.1 mM, read-out: LOX IC50 (±SD)
T1 construct: purchased Sigma Chemical, Co. (St. Louis, MO, USA)
T1 sequence (P08170 1-839): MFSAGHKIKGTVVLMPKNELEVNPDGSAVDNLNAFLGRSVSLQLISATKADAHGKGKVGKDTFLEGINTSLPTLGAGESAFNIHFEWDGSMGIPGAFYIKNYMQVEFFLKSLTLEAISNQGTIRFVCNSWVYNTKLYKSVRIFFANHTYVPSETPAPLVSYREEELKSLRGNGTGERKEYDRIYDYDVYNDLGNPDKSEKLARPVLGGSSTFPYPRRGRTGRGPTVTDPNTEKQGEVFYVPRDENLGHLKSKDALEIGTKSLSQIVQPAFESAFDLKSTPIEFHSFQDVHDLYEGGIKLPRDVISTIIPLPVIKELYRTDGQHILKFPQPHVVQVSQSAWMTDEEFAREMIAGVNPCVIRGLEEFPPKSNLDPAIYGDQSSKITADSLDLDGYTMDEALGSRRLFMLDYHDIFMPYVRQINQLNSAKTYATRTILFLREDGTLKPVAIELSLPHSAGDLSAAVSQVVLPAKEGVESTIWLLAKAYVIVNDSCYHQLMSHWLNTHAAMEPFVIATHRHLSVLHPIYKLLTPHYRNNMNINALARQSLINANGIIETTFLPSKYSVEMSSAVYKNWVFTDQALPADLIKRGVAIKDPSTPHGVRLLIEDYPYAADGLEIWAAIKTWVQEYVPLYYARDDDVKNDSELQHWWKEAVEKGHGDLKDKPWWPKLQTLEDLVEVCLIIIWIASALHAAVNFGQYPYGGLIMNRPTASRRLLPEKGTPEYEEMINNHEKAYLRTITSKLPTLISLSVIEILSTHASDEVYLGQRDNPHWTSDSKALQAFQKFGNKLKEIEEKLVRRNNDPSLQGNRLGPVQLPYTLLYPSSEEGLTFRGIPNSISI
Experimental: The evaluation of the novel acids against soybean lipoxygenase LOX was accomplished by the UV-based enzyme assay of Pontiki and Hadjipavlou-Litina. This assay may be used as a qualitative or semi-quantitative screen for such activity.
In vitro inhibitory LOX assay is accomplished as described previously. The novel derivatives for testing (stock solutions 10 mM in DMSO) were incubated at room temperature with sodium linoleate (0.1 mM) and 0.2 mL of LOX enzyme solution (1/9 × 10^−4w/v in saline). The conversion of sodium linoleate to 13-hydroperoxylinoleic acid was measured at 234 nm and compared with the reference inhibitor. Several concentrations were used for the IC50 determination (Table 2).

[1] = Superoxide radical scavenging activity (non-enzymatic, PMS/NADH, NBT method); conditions: 0.1 mM; no = no action under the used experimental conditions
Experimental: The superoxide anion radical (O2^−·) is less toxic than the hydroxyl radical, but still being one of the most known toxic ROS. Two different experimental assays are followed for the determination of superoxide anion radical scavenging activity: (i) one involves an enzymatic production of superoxide anions and (ii) the other is supported by a non- enzymatic procedure. Herein the test is performed at 0.1 mM concentration, generating superoxide anion radicals by a non-enzymatically assay (Table 3). Compound 1i presented the highest activity, followed by compound 1ii (75% and 50%, respectively).
Superoxide radicals were produced non-enzymatically by mixing PMS, NADH and air–oxygen. The nitroblue tetrazolium method was used for the estimation of the produced radicals. The reaction mixture containing compounds (0.1 mM), 3 μM PMS, 78 μM NADH, and 25 μM NBT in 19 μM phosphate buffer pH 7.4 was incubated for 2 min at room temperature. The acrylic acids were preincubated for 2 min before adding NADH (Table 4) and the absorption was recorded at 560 nm.

OAW-42 (ovarian) = assay: SRB cytotoxicity assay, OAW-42; assay type: cell-based; conditions: Homo sapiens, 50% growth inhibition, 48 h exposure
Experimental: Human cancer cell lines used as targets were HT-29 (colon), A-549 (lung), OAW-42 (ovarian), MDA-MB-231 (breast), HeLa (immortal cells from cervical cancer). All cells were obtained from the American Type Culture Collection (ATCC). Cells were routinely grown as monolayer cell cultures in T-75 flasks (Costar) in an atmosphere containing 5% CO2 in air and 100% relative humidity at 37 °C and subcultured twice a week, restricting the total number of cell passages below 20. The culture medium used was Dulbecco’s modified Eagle’s medium (DMEM, Gibco, Grand Island, NY, USA) supplemented with 10% fetal bovine serum (Gibco), 2 mM glutamine (Sigma), 100 μg/mL streptomycin and 100 IU/mL penicillin.
Cell passages were carried out by detaching adherent, logarithmically growing cells after addition of 2–3 mL of a mixture of 0.05% solution of trypsin (Gibco, 1:250) in phosphate-buffered saline (PBS) with 0.02% EDTA and incubation for 3–5 min at 37 °C. For the experiments, cells were plated (100 μL containing 10,000 cells/well) in 96-well flat-bottom microplates microplates (Costar-Corning, Acton, MA 01720, USA) so that untreated cells were in exponential growth phase at the time of cytotoxicity evaluation. Cells were left for 24 h at 37 °C to resume exponential growth and stabilization and afterwards exposed to tested agents for 48 h by the addition of an equal volume (100 μL) of either complete culture medium (control wells), or twice the final drug concentrations diluted in complete culture medium (test wells). Drug cytotoxicity was measured by means of the SRB colorimetric assay estimating the survival fractions (SF) as the percent of control (untreated cells) absorbance. The SRB assay was carried out as previously described and modified by our group. In brief, culture medium was aspirated prior to fixation using a microplate-multiwash device (Tri-Continent Scientific, Inc., Grass Valley, CA, USA) and 50 μL of 10% cold (4 °C) trichloroacetic acid (TCA) were gently added to the wells. Microplates were left for 30 min at 4 °C, washed five times with deionized water and left to dry at room temperature for at least 24 h. Subsequently, 70 μL of 0.4% (w/v) sulforhodamine B (Sigma) in 1% acetic acid solution were added to each well and left at room temperature for 20 min. SRB was removed and the plates were washed five times with 1% acetic acid before air drying. Bound SRB was solubilized with 200 μL of 10 mM unbuffered Tris-base solution and plates were left on a plate shaker for at least 10 min. Absorbance was read in a 96-well plate reader at 492 nm subtracting the background measurement at 620 nm. The test optical density (OD) value was defined as the absorbance of each individual well, minus the blank value (“blank” is the mean optical density of the background control wells, n = 8). Mean values and the coefficient of variation (CV) from six replicate wells were calculated automatically. Results were expressed as the “survival fraction” (SF), as shown below.
For each tested compound a dose-effect curve was produced. Sextuplicate determinations gave a CV (Standard Deviation/mean %) of much less than 10%, resulting in standard error (SE) which was very low in all cases. The data showing inhibition of cellular growth are expressed as the fraction of cells that remains unaffected (fu) (survival fraction, SF), which is derived from the following equation: fu = ODx/ODc where ODx and ODc represent the test and the control optical density, respectively.

Compound | inhibition at 10 µM (soybean lipoxygenase) [%] | IC50 (soybean lipoxygenase) [µM] | O2−· (%) (±SD) [1] | IC50 (OAW-42 (ovarian)) [µM]
N#Cc1ccc(C=CC(=O)O)cc1 [Compound 1ii, 3-(4-Cyanophenyl)acrylic acid] | 27 | – | 50% and 50 ± 0.5% | > 240
O=C(O)C=CC=Cc1ccc([N+](=O)[O-])cc1 [Compound 2ii, 5-(4-Nitrophenyl)penta-2,4-dienoic acid] | 31 | – | no | > 240
O=C(O)C(=CC=Cc1ccc([N+](=O)[O-])cc1)c1ccccc1 [Compound 2i, 5-(4-Nitrophenyl)-2-phenylpenta-2,4-dienoic acid] | – | 66.5 ± 1.2 | no | 160 ± 1.1
N#Cc1ccc(C=C(C(=O)O)c2ccccc2)cc1 [Compound 1i, 3-(4-Cyanophenyl)-2-phenylacrylic acid] | – | 60 ± 0.4 | 75% and 75 ± 1.0% | > 240
O=C(O)C(=CC=Cc1ccccc1)c1ccccc1 [Compound 3i, 2,5-Diphenylpenta-2,4-dienoic acid] | – | 74 ± 1.7 | no | > 240
O=C(O)C=CC=Cc1ccccc1 [Compound 3ii, 5-Phenylpenta-2,4-dienoic acid] | 24 | – | no | > 240

Now from value to compound, other results behind:

inhibition at 10 µM (soybean lipoxygenase) [%] | IC50 (soybean lipoxygenase) [µM] | Compound | O2−· (%) (±SD) [1] | IC50 (OAW-42 (ovarian)) [µM]
– | 74 ± 1.8 | O=C(O)C(=CC(Br)=Cc1ccccc1)c1ccccc1 [Compound 4i, 4-Bromo-2,5-diphenylpenta-2,4-dienoic acid] | no | 174 ± 1.8
– | 10 ± 0.05 | O=C(O)C=CC(Br)=Cc1ccccc1 [Compound 4ii, 4-Bromo-5-phenylpenta-2,4-dienoic acid] | no | 63.5 ± 0.8
